Assay results published in patent publication US9808434B2, “Compound for treating cancer and diabetes” (CITY OF HOPE, priority 2011, dated 2017).

Assays:
[1] = system: human melanoma cells (SK-MEL28, A2058, A101D); assay: Oxygen consumption rate in melanoma cells, Seahorse; type: cell-based; settings: 1-10 μM, monitored 2 h
Procedure: (§1) Oxygen consumption rate (OCR), a measure of OxPhos, and extracellular acidification rate (ECAR), a measure of lactate production by glycolysis, were measured using a Seahorse Xf^e96 Flux Analyzers (Seahorse Biosciences, North Billerica, Mass.). Cells were seeded in DMEM media in Seahorse 96-well tissue culture plates at a density of 5×10^3 cells/well and allowed to adhere for 24 h. Prior to the assay, the media was changed to unbuffered DMEM containing 25 mM glucose, 1 mM pyruvate and 1 mM glutamine, with 0.2% fatty acid/endotoxin-free BSA (w/v) (pH 7.4) and the cells were equilibrated for 30 min at 37° C. Test compounds were injected during the assay and OCR and ECAR were measured using 2-3 min measurement periods. […] OCR was measured throughout the different injections of the stressors and test compounds (indicated by arrows in the figures).
The importance of mitochondria as oxygen sensors as well as producers of ATP and ROS has recently become a focal point of cancer research. […] OCR was continuously monitored for 2 h. Mitochondria recoupler 6-KCH (200 μM) was added to the assay system prior to injection of COH-SR4 (5 μM) as shown by arrows and OCR of A101D cells were monitored (FIG. 37B). […]

[2] = system: isolated mouse liver mitochondria; assay: Mitochondrial swelling assay; settings: potassium acetate buffer with valinomycin
Procedure: Mitochondrial swelling was measured in non-respiring mouse liver mitochondria incubated in buffered isotonic potassium acetate in the presence of valinomycin (24,25). […] Absorbance of the mitochondrial suspension before and after addition test compounds was measured every 10 seconds using a Varian Cary 300 spectrophotometer (Agilent Technologies, Santa Clara, Calif.). Swelling was recorded from the decrease in absorbance at 600 nm and expressed as percentage from initial reading after addition of mitochondria.
Mitochondrial membrane swelling was detected as decrease in absorbance at 600 nm following the addition of COH-SR4 or FCCP alone or in the presence of cysclosporin A (CSA, 1 μM) on isolated mouse liver mitochondria respiring on succinate (10 mM) in the presence of rotenone (1 μM) and valinomycin (5 μM) in potassium acetate buffer. […] Arrow indicates time of addition of test compounds into the mitochondria suspension.

A2058 p^0 cells = assay: Oxygen consumption rate in mitochondrial DNA-depleted cells; type: cell-based, human; settings: compared with wild-type A2058; data not shown
Procedure: as §1, with “periods. Similar sets of experiments were performed in the presence of the mitochondria recoupler agent 6-KCH or the mitochondrial permeability transition (MPT) pore blocker CSA, where each compound was injected into the assay media prior to COH-SR4 or FCCP injection.” for “periods.”
To verify that COH-SR4 acts directly on mitochondrial respiration, OCR in mitochondrial DNA-depleted (p^0) A2058 cells was measured, as well as freshly isolated mouse liver mitochondria and treated with either COH-SR4 or FCCP.

[3] = system: HepG2 liver carcinoma cells; assay: Intracellular AMP:ATP ratio in HepG2; type: cell-based, human; settings: 5 μM, 1 h
Procedure: ATP production from cells treated with test compounds were measured using the Luminescent ATP Detection Assay Kit. AMP, ATP and ADP were measured by UV-HPLC.
Total intracellular ATP production in cells treated with either 5 μM COH-SR4 or 5 μM FCCP was measured by bioluminescence assay and expressed as percentage of time-matched vehicle (DMSO) control (FIG. 84A). Intracellular AMP: ATP ratios increased in HepG2 liver carcinoma cells following 1 h treatment with either 5 μM COH-SR4 or 5 μM FCCP (FIG. 84B) and in liver of db/db mice treated with COH-SR4 (5 mg/kg B.W.) for 5 weeks (FIG. 84C). All data represented are mean±SEM, *P<0.05.

A2058 cells = assay: Mitochondrial membrane depolarization, TMRE; type: cell-based, human; settings: 5 μM
Procedure: Cells (4×10^5/well in 6-well plates) cultured overnight were pre-incubated with the fluorescent indicator of MMP tetramethylrhodamine ester (TMRE, 200 nM) or DMSO control for 30 min at 37° C. in CO2 incubator. Cells were washed with pre-warmed normal DMEM media, and test compounds were added with fresh media for the indicated times. Cells were then trypsinized, collected, centrifuged for 5 min at 800×g, and washed once in pre-warmed PBS-0.2% BSA. Cells were then resuspended in the same buffer prior to flow cytometric analysis. A total of 30,000 cells were counted per sample and data was analyzed by Cyan ADP flow cytometer with excitation/emission of 488 nm/572 nm (Beckman Coulter, Inc., Brea, Calif.). For measurements of membrane potential in isolated mouse liver mitochondria, the organelles were pre-incubated with 200 nM TMRE in MASSRO buffer (MAS buffer supplemented with 10 mM succinate, 1 μM rotenone, and 1 μM oligomycin) for 20 min at 25° C. The mitochondria were centrifuged for 5 min at 3000×g and resuspended in MASSRO buffer. Mitochondria were then added to MASSRO buffer containing the indicated concentrations of COH-SR4, FCCP or DMSO vehicle control and incubated at room temperature for 15 min. […] TMRE fluorescence was measured with a microplate reader (Tecan Infinite M200 Pro, Tecan Group Ltd., Switzerland) using an excitation emission of 545ex/580em. […]

[4] = system: isolated mouse liver mitochondria; assay: Oxygen consumption rate in isolated liver mitochondria; settings: increasing concentrations
Procedure: Mitochondria were isolated from the livers of 10 week old male C57BL/6 mice. Mice were euthanized by CO2 inhalation followed by cervical dislocation. Livers were removed, minced with scissors, and immediately placed in ˜10 volumes of ice-cold mitochondria isolation medium (250 mM sucrose, 10 mM Tris-HCl, 1 mM EGTA, 1% fatty acid/endotoxin-free BSA, pH 7.4). The presence of BSA in the medium allowed the endogenous free fatty acids to be chelated from the homogenate suspension. The tissues were homogenized using 25-30 strokes in Potter-Elvehjem tissue grinder. Following centrifugation at 800×g for 10 min at 4° C., the fats/lipids were carefully aspirated, and the remaining supernatant was filtered through sterile 0.40 micron nylon mesh membrane and centrifuged at 8,000×g for 10 min at 4° C. […] The mitochondrial protein concentration was determined by the DC Protein Assay kit (Bio-Rad, Hercules, Calif.) with BSA as a standard. […]
Isolated mouse liver mitochondria (2 μg/well or 5 μg/well) were seeded on Seahorse 96-well plate, and respiration (OCR) was measured on mitochondria respiring either on pyruvate (10 mM) and malate (2 mM) or succinate (10 mM) and rotenone (2 μM) using a Seahorse 96 Flux Analyzers according to Rogers et al (90).

U251 = assay: Glioma ATP viability assay, U251; type: cell-based; settings: Homo sapiens, U-251, 72 h, Table 2
Procedure: (§2) Cells of each cell line (U251, U87, PBT-017, PBT018, PBT003 and PBT028) were treated with various concentrations (0˜100 μM) of COH-SR4 for 72 hours. Cell viabilities were determined by ATP viability assays. Data were represented as a ratio to vehicle (DMSO) control, and plotted as mean±SEM (n=12) obtained from 2˜3 experiments (FIG. 34A).
as §2, with “(U87, U251,” for “(U251, U87, PBT-017, PBT018,”, “PVT-017)” for “PBT028)”, “2-3” for “2˜3”, “34B).” for “34A).”
(§3) Cells of each cell line were treated with various concentrations (0˜100 μM) of COH-SR4 or various concentrations (0˜1000 μM) of TMZ for 72 hours. Cell viabilities were determined by ATP viability assays. Data were represented as a ratio to untreated cells as control, and plotted as mean±SEM (n=12) obtained from 2˜3 experiments (FIGS. 43A-B).

PBT-017 = assay: Glioma ATP viability assay, PBT-017; type: cell-based; settings: 72 h, Table 2
Procedure: as §2
as §2, with “(U87, U251,” for “(U251, U87, PBT-017, PBT018,”, “PVT-017)” for “PBT028)”, “2-3” for “2˜3”, “34B).” for “34A).”
as §3

melanoma cells [5] = assay: Colony formation assay, melanoma cells (elesclomol); type: cell-based, human; settings: 5 μM, compared to COH-SR4
Procedure: Cell survival was evaluated using a standard colony-forming assay. In total, 1×10^5 cells/mL were incubated with COH-SR4 (1.5 μM or 5 μM) or elesclomol (5 μM) for 24 h, and aliquots of 50 or 100 μL were added to 60 mm size petri dishes, containing 4 mL culture medium. After 7 or 10 days, adherent colonies were fixed, stained with 0.5% methylene blue for 30 min and colonies were counted using the Innotech Alpha Imager HP (91).

[6] = system: B16-F0 and A2058 melanoma cells; assay: TUNEL apoptosis assay, melanoma; type: cell-based; settings: 5 μM, 24 h
Procedure: For TUNEL assay, 1×10^5 cells were grown on the cover slips for ˜12 h followed by treatment with COH-SR4 (5 μM or 10 μM) or elesclomol (5 μM) for 24 h. Apoptosis was determined by the labeling of DNA fragments with terminal deoxynucleotidyl-transferase dUTP nick-end labeling (TUNEL) assay using Promega fluorescence apoptosis detection system, and examined using Zeiss LSM 510 META laser scanning fluorescence microscope with filters 520 and 620 nm according to the protocol described previously (91). Photographs taken at identical exposure at ×400 magnification are presented.

melanoma cells [7] = assay: MTT assay, melanoma cell lines of various mutational status; type: cell-based; settings: 48 h, regardless of mutational status; read-out: IC50 values across melanoma cell lines
Procedure: Cell density measurements were performed using a hemocytometer to count reproductive cells resistant to staining with trypan blue. Approximately 20,000 cells were plated into each well of 96-well flat-bottomed micro-titer plates. After 12 h or 24 h incubation at 37° C., medium containing either COH-SR4 (ranging 0-200 μM) or elesclomol (ranging 0-20 μM) were added to the cells. After 24 h, 48 h or 96 h incubation, 20 μL of 5 mg/mL MTT were introduced to each well and incubated for 2 h. The plates were centrifuged and medium was decanted. Cells were subsequently dissolved in 100 μl DMSO with gentle shaking for 2 h at room temperature, followed by measurement of OD570 (91).

GSTP = target: T1, GSTP (Homo sapiens, UniProt P09211); assay: GSTP activity towards CDNB in the presence of GSR4; type: biochemical; settings: 93977 at 0 μM
T1 construct: made in house; host or cells: E. coli BL21 (DE3)
T1 sequence (P09211 whole entry): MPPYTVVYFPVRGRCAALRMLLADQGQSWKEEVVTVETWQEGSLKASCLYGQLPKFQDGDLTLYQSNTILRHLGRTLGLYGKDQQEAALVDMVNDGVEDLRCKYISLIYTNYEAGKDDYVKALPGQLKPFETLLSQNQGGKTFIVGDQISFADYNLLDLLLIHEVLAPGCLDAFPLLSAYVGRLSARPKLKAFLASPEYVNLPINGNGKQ
Procedure: Furthermore, GSTP activities towards CDNB were assessed in the presence of various concentration of GSR4. The GSTP activities decreased when the concentration of GSR4 increased (Table 3). Thus, […] was a product inhibitor of GSTP with an estimated Ki of less than 5 μM.

## N#CC(C#N)=NNc1ccc(OC(F)(F)F)cc1 [FCCP, reference compound]
[1]
  oxygen consumption rate (OCR): caused an abrupt increase in OCR at the lower concentration and decreases OCR at higher (>3 μM) concentrations
[2]
  mitochondrial swelling (absorbance at 600 nm): mitochondrial swelling was observed
A2058 p^0 cells
  OCR in mitochondrial DNA-depleted cells: failed to increase OCR
[3]
  intracellular AMP:ATP ratios: increased
A2058 cells
  mitochondrial membrane depolarization (TMRE fluorescence): induced mitochondrial membrane depolarization in a time-dependent manner
[4]
  OCR of mitochondria respiring on pyruvate and malate or succinate-rotenone: dose-dependently increased OCR of mitochondria

## Cn1nnc2c(C(N)=O)ncn2c1=O [TMZ, temozolomide, reference compound]
U251
  IC50: 371 µM
PBT-017
  IC50: 13 µM

## CN(NC(=O)CC(=O)NN(C)C(=S)c1ccccc1)C(=S)c1ccccc1 [elesclomol, reference compound]
Melanoma cells [5]
  colony forming ability of melanoma cells: did not significantly affect the colony forming ability
[6]
  apoptosis (DNA fragmentation, TUNEL): not potent
Melanoma cells [7]
  IC50: ≥ 5.8 µM

## mono-glutationyl-SR4 [GSR4]
GSTP; [GSR4] 5 μM
  GSTP activity towards CDNB (Kcat [s−1]): 36385 s⁻¹
GSTP; [GSR4] 10 μM
  GSTP activity towards CDNB (Kcat [s−1]): 16115 s⁻¹
